{
  "source": "patent US7741244B2",
  "about": "“Fungicide compositions” (priority 2002, dated 2010)",
  "key": {"[1]": {"system": "Botrytis cinerea", "experiment": "Inhibition of fungal infections on fresh raspberries (Example 9)", "type": "in vivo", "conditions": "raspberries (Heritage), 60 s dip"}, "[2]": {"system": "Botrytis cinerea", "experiment": "PDA plate inhibition, caprylic acid and organic acids (Example 13)", "type": "cell-based", "conditions": "PDA plates"}, "[3]": {"system": "White mold", "experiment": "PDA plate inhibition, caprylic acid and organic acids (Example 13)", "type": "cell-based", "conditions": "PDA plates"}, "[4]": {"system": "Late blight", "type": "cell-based", "conditions": "PDA plates; day 2 after inoculum; control plate = 100%"}, "[5]": {"system": "Septoria", "conditions": "PDA plates, control plate = 100%"}},
  "data": [
    {"smiles": "O=C(O)C(O)C(O)C(=O)O", "note": "(stereo not shown) [0.75% tartaric acid, tartaric acid]", "values": [
      {"measurement": "Infected berries (% of total) Day 2", "setting": "[1]; day 2", "value": 31, "unit": "%"},
      {"measurement": "Infected berries (% of total) Day 3", "setting": "[1]; day 3", "value": 58, "unit": "%"},
      {"measurement": "Infected berries (% of total) Day 4", "setting": "[1]; day 4", "value": 86, "unit": "%"},
      {"measurement": "Infected berries (% of total) Day 6", "setting": "[1]; day 6", "value": 92, "unit": "%"},
      {"measurement": "Infected berries (% of total) Day 8", "setting": "[1]; day 8", "value": 92, "unit": "%"},
      {"measurement": "Infected berries (% of total) Day 10", "setting": "[1]; day 10", "value": 92, "unit": "%"},
      {"measurement": "Infected berries (% of total) Day 12", "setting": "[1]; day 12", "value": 92, "unit": "%"}
    ]},
    {"smiles": "O=C(O)CC(O)(CC(=O)O)C(=O)O", "note": "[0.010% citric acid, citric acid]", "values": [
      {"measurement": "Inhibition (%) of Botrytis cinerea", "setting": "[2]", "value": 0, "unit": "%"},
      {"measurement": "Inhibition (%) of white mold", "setting": "[3]", "value": 0, "unit": "%"}
    ]},
    {"smiles": "O=C(O)CO", "note": "[glycolic acid]", "values": [
      {"measurement": "Measurement of fungal growth, Late blight Day 2", "setting": "[4]", "value": 79, "unit": "%"},
      {"measurement": "Inhibition (%) of Botrytis cinerea", "setting": "[2]", "value": 0, "unit": "%"},
      {"measurement": "Inhibition (%) of white mold", "setting": "[3]", "value": 0, "unit": "%"},
      {"measurement": "Measurement of fungal growth, Septoria Day 2", "setting": "[5]; day 2 after inoculum", "value": 80, "unit": "%"},
      {"measurement": "Measurement of fungal growth, Septoria Day 3", "setting": "[5]; day 3 after inoculum", "value": 90, "unit": "%"}
    ]},
    {"smiles": "O=C(O)CCC(=O)O", "note": "[0.010% succinic acid, succinic acid]", "values": [
      {"measurement": "Inhibition (%) of Botrytis cinerea", "setting": "[2]", "value": 0, "unit": "%"},
      {"measurement": "Inhibition (%) of white mold", "setting": "[3]", "value": 0, "unit": "%"}
    ]}
  ]
}
